Our source for the IC50 values is US12336981B2, “Compounds and compositions for the inhibition of NAMPT” (Valo Health, Inc., priority 2010, dated 2025).

As usually defined, the pIC50 is −log10 of the IC50, conventionally taken in molar units.

pIC50: −log10 of the molar value. Read-outs that look alike come from different tables or passages of the source.

Test [1] relates to A2780 cells. Briefly: In-vitro cell proliferation assay (SRB), A2780 cells. Type of test: cell-based. As to conditions: Homo sapiens, A2780, 72 h, A2780 cells, 72 hours, read-out: A2780 IC50. The method, boiled down:
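Cells were plated overnight at 37° C., 5% CO2, then exposed to serially diluted compounds (0.1% DMSO final) for 72 hours. Viable cells were measured by sulforhodamine B staining after TCA fixation, read at 570 nm; media-only background was subtracted before % inhibition was calculated.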

The target in test [2] is T1, NAMPT (Homo sapiens, UniProt P43490).
T1 construct: His tag; host or cells: E. coli
T1 sequence (P43490 whole entry): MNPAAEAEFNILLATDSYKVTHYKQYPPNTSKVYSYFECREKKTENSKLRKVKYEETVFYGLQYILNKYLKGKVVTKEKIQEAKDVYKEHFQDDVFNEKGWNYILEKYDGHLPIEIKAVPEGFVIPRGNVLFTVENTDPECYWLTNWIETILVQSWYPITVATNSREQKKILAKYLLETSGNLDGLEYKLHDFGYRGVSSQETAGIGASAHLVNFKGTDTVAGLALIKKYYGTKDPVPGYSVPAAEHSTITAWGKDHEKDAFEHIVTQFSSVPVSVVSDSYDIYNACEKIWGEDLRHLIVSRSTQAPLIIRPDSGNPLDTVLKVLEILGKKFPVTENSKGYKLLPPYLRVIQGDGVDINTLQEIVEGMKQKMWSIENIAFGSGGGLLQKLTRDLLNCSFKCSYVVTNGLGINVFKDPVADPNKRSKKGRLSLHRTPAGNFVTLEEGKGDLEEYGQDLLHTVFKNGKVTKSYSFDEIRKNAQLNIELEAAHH
Briefly: Biochemical inhibition assay: NAMPT enzymatic reaction, NMN quantified by mass spectrometry. The settings on record: read-out: Biochem IC50. The essentials:
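Inhibition of E. coli-expressed His-tagged human NAMPT, measured as NMN formation by mass spectrometry after a 30 min room-temperature reaction containing 1 μM NAM, 100 μM PRPP and 2.5 mM ATP.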

Regarding `Cn1ncc2ccc(S(=O)(=O)c3ccc(CNC(=O)c4cnc5nccn5c4)cc3)cc21` [N-{[4-(1-methyl-1H-indazole-6-sulfonyl)phenyl]methyl}imidazo[1,2-a]pyrimidine-6-carboxamide], the pIC50 was 8.30 in test [1] (SRB) and 8.80 in test [2] (NAMPT enzymatic assay).
Regarding `Cn1ncc2ccc(S(=O)(=O)c3ccc(CNC(=O)c4cc5ccncc5s4)cc3)cc21` [N-{[4-(1-methyl-1H-indazole-6-sulfonyl)phenyl]methyl}thieno[2,3-c]pyridine-2-carboxamide], the figures for the pIC50 in test [1] (SRB) and in test [2] (NAMPT enzymatic assay) were 8.96 and 8.64, respectively.
Regarding `Cn1ncc2cccc(S(=O)(=O)c3ccc(CNC(=O)c4cnc5[nH]ncc5c4)cc3)c21` [N-{[4-(1-methyl-1H-indazole-7-sulfonyl)phenyl]methyl}-1H-pyrazolo[3,4-b]pyridine-5-carboxamide], the values for the pIC50 in test [1] (SRB) and in test [2] (NAMPT enzymatic assay) were 7.06 and 7.04, respectively.
For `Cn1ncc2cccc(S(=O)(=O)c3ccc(CNC(=O)c4cc5cnccc5[nH]4)cc3)c21` [N-{[4-(1-methyl-1H-indazole-7-sulfonyl)phenyl]methyl}-1H-pyrrolo[3,2-c]pyridine-2-carboxamide], in that order: 7.95 and 7.43.
For `Cn1ncc2cccc(S(=O)(=O)c3ccc(CNC(=O)c4cc5ccncc5o4)cc3)c21` [N-{[4-(1-methyl-1H-indazole-7-sulfonyl)phenyl]methyl}furo[2,3-c]pyridine-2-carboxamide], the pIC50 is 7.56 in test [1] (SRB) and 7.94 in test [2] (NAMPT enzymatic assay).
With `Cn1ncc2cccc(S(=O)(=O)c3ccc(CNC(=O)c4ccc5nccn5c4)cc3)c21` [N-{[4-(1-methyl-1H-indazole-7-sulfonyl)phenyl]methyl}imidazo[1,2-a]pyridine-6-carboxamide], the pIC50 in test [1] (SRB) was 7.56; in test [2] (NAMPT enzymatic assay), 7.54.
For `Cn1ncc2cccc(S(=O)(=O)c3ccc(CNC(=O)c4cnc5nccn5c4)cc3)c21` [N-{[4-(1-methyl-1H-indazole-7-sulfonyl)phenyl]methyl}imidazo[1,2-a]pyrimidine-6-carboxamide], in that order: 6.00 to 7.00 and 7.63.
On to `Cn1ncc2cccc(S(=O)(=O)c3ccc(CNC(=O)c4cc5ccncc5s4)cc3)c21` [N-{[4-(1-methyl-1H-indazole-7-sulfonyl)phenyl]methyl}thieno[2,3-c]pyridine-2-carboxamide], for which the pIC50 in test [1] (SRB) is 7.98; in test [2] (NAMPT enzymatic assay) it was 8.35.
The like results for `Cn1c(S(=O)(=O)c2ccc(CNC(=O)c3cnc4[nH]ncc4c3)cc2)cc2ccccc21` [N-{[4-(1-methyl-1H-indole-2-sulfonyl)phenyl]methyl}-1H-pyrazolo[3,4-b]pyridine-5-carboxamide] were, in that order, 7.88 and 7.85.
On to `Cn1c(S(=O)(=O)c2ccc(CNC(=O)c3cc4ccncc4s3)cc2)cc2ccccc21` [N-{[4-(1-methyl-1H-indole-2-sulfonyl)phenyl]methyl}thieno[2,3-c]pyridine-2-carboxamide], for which the pIC50 in test [1] (SRB) was 8.47; in test [2] (NAMPT enzymatic assay), 8.28.
Turning to `Cn1cc(S(=O)(=O)c2ccc(CNC(=O)c3cnc4[nH]ncc4c3)cc2)cn1` [N-{[4-(1-methyl-1H-pyrazole-4-sulfonyl)phenyl]methyl}-1H-pyrazolo[3,4-b]pyridine-5-carboxamide], the pIC50 was 6.00 to 7.00 in test [1] (SRB) and 6.74 in test [2] (NAMPT enzymatic assay).
As to `Cn1cc(S(=O)(=O)c2ccc(CNC(=O)c3cc4cnccc4[nH]3)cc2)cn1` [N-{[4-(1-methyl-1H-pyrazole-4-sulfonyl)phenyl]methyl}-1H-pyrrolo[3,2-c]pyridine-2-carboxamide], the values for the pIC50 in test [1] (SRB assay) and in test [2] (NAMPT enzymatic reaction) were 6.91 and 7.32, respectively.
On to `Cn1cc(S(=O)(=O)c2ccc(CNC(=O)c3cc4ccncc4o3)cc2)cn1` [N-{[4-(1-methyl-1H-pyrazole-4-sulfonyl)phenyl]methyl}furo[2,3-c]pyridine-2-carboxamide], for which the pIC50 in test [1] (SRB) is 7.18; in test [2] (NAMPT enzymatic assay), 7.77.
On to `Cn1cc(S(=O)(=O)c2ccc(CNC(=O)c3cnc4nccn4c3)cc2)cn1` [N-{[4-(1-methyl-1H-pyrazole-4-sulfonyl)phenyl]methyl}imidazo[1,2-a]pyrimidine-6-carboxamide], for which the pIC50 in test [1] (SRB) is 6.00 to 7.00; in test [2] (NAMPT enzymatic assay) it was 8.09.
As for `CCCn1cc(S(=O)(=O)c2ccc(CNC(=O)c3cnc4[nH]ncc4c3)cc2)cn1` [N-{[4-(1-propyl-1H-pyrazole-4-sulfonyl)phenyl]methyl}-1H-pyrazolo[3,4-b]pyridine-5-carboxamide], the pIC50 in test [1] (SRB) is 8.15; in test [2] (NAMPT enzymatic assay) it was 8.10.
On to `CCCn1cc(S(=O)(=O)c2ccc(CNC(=O)c3cc4cnccc4[nH]3)cc2)cn1` [N-{[4-(1-propyl-1H-pyrazole-4-sulfonyl)phenyl]methyl}-1H-pyrrolo[3,2-c]pyridine-2-carboxamide], for which the results for the pIC50 in test [1] (SRB) and in test [2] (NAMPT enzymatic assay) were 8.23 and 7.83, respectively.
Turning to `CCCn1cc(S(=O)(=O)c2ccc(CNC(=O)c3ccc4nccn4c3)cc2)cn1` [N-{[4-(1-propyl-1H-pyrazole-4-sulfonyl)phenyl]methyl}imidazo[1,2-a]pyridine-6-carboxamide], the pIC50 was 8.28 in test [1] (SRB) and 8.31 in test [2] (NAMPT enzymatic assay).
As for `CCCn1cc(S(=O)(=O)c2ccc(CNC(=O)c3cc4ccncc4s3)cc2)cn1` [N-{[4-(1-propyl-1H-pyrazole-4-sulfonyl)phenyl]methyl}thieno[2,3-c]pyridine-2-carboxamide], the negative logarithm of the IC50 (pIC50) in test [1] (SRB) was 8.80; in test [2] (NAMPT enzymatic assay), 8.72.
For `O=C(NCc1ccc(S(=O)(=O)c2cccc3cc[nH]c23)cc1)c1cc2ccncc2s1` [N-{[4-(1H-indole-7-sulfonyl)phenyl]methyl}thieno[2,3-c]pyridine-2-carboxamide], the pIC50 in test [1] (SRB assay) was 8.57; in test [2] (NAMPT enzymatic reaction) it was 8.52.
With `O=C(NCc1ccc(S(=O)(=O)c2ccc3c(c2)OCCO3)cc1)c1cc2ccncc2o1` [N-{[4-(2,3-dihydro-1,4-benzodioxine-6-sulfonyl)phenyl]methyl}furo[2,3-c]pyridine-2-carboxamide], the negative logarithm of the IC50 (pIC50) is 8.21 in test [1] (SRB) and 8.26 in test [2] (NAMPT enzymatic assay).
Turning to `O=C(NCc1ccc(S(=O)(=O)c2ccc3c(c2)OCCO3)cc1)c1cnc2nccn2c1` [N-{[4-(2,3-dihydro-1,4-benzodioxine-6-sulfonyl)phenyl]methyl}imidazo[1,2-a]pyrimidine-6-carboxamide], the pIC50 was 9.30 in test [1] (SRB) and 9.70 in test [2] (NAMPT enzymatic assay).
As for `O=C(NCc1ccc(S(=O)(=O)c2ccc3c(c2)OCCO3)cc1)c1cc2ccncc2s1` [N-{[4-(2,3-dihydro-1,4-benzodioxine-6-sulfonyl)phenyl]methyl}thieno[2,3-c]pyridine-2-carboxamide], the pIC50 in test [1] (SRB assay) is 8.57; in test [2] (NAMPT enzymatic reaction), 8.40.
As for `O=C(NCc1ccc(S(=O)(=O)c2cccc3c2OCC3)cc1)c1cc2cnccc2[nH]1` [N-{[4-(2,3-dihydro-1-benzofuran-7-sulfonyl)phenyl]methyl}-1H-pyrrolo[3,2-c]pyridine-2-carboxamide], the figures for the pIC50 in test [1] (SRB) and in test [2] (NAMPT enzymatic assay) were 8.42 and 7.85, respectively.
With `O=C(NCc1ccc(S(=O)(=O)c2cccc3c2OCC3)cc1)c1cc2ccncc2o1` [N-{[4-(2,3-dihydro-1-benzofuran-7-sulfonyl)phenyl]methyl}furo[2,3-c]pyridine-2-carboxamide], the pIC50 in test [1] (SRB) is 8.15; in test [2] (NAMPT enzymatic assay), 8.22.
With `O=C(NCc1ccc(S(=O)(=O)c2cccc3c2OCC3)cc1)c1ccc2nccn2c1` [N-{[4-(2,3-dihydro-1-benzofuran-7-sulfonyl)phenyl]methyl}imidazo[1,2-a]pyridine-6-carboxamide], the negative logarithm of the IC50 (pIC50) in test [1] (SRB) was 8.19; in test [2] (NAMPT enzymatic assay), 7.90.
The like results for `O=C(NCc1ccc(S(=O)(=O)c2cccc3c2OCC3)cc1)c1cnc2nccn2c1` [N-{[4-(2,3-dihydro-1-benzofuran-7-sulfonyl)phenyl]methyl}imidazo[1,2-a]pyrimidine-6-carboxamide] were, in that order, 7.59 and 8.68.
As for `O=C(NCc1ccc(S(=O)(=O)c2cccc3c2OCC3)cc1)c1cc2ccncc2s1` [N-{[4-(2,3-dihydro-1-benzofuran-7-sulfonyl)phenyl]methyl}thieno[2,3-c]pyridine-2-carboxamide], the results for the pIC50 in test [1] (SRB) and in test [2] (NAMPT enzymatic assay) were 8.52 and 8.66, respectively.
`COc1ccc(S(=O)(=O)c2ccc(CNC(=O)c3cnc4[nH]ncc4c3)cc2)c(OC)n1` [N-{[4-(2,6-dimethoxypyridine-3-sulfonyl)phenyl]methyl}-1H-pyrazolo[3,4-b]pyridine-5-carboxamide]: the figures for the pIC50 in test [1] (SRB) and in test [2] (NAMPT enzymatic assay) were 8.70 and 7.51, respectively.
As to `COc1ccc(S(=O)(=O)c2ccc(CNC(=O)c3cc4ccncc4o3)cc2)c(OC)n1` [N-{[4-(2,6-dimethoxypyridine-3-sulfonyl)phenyl]methyl}furo[2,3-c]pyridine-2-carboxamide], the pIC50 was 7.96 in test [1] (SRB) and 8.18 in test [2] (NAMPT enzymatic assay).
As to `COc1ccc(S(=O)(=O)c2ccc(CNC(=O)c3ccc4nccn4c3)cc2)c(OC)n1` [N-{[4-(2,6-dimethoxypyridine-3-sulfonyl)phenyl]methyl}imidazo[1,2-a]pyridine-6-carboxamide], the pIC50 in test [1] (SRB) was 8.04; in test [2] (NAMPT enzymatic assay), 7.36.
Turning to `Cc1nc(S(=O)(=O)c2ccc(CNC(=O)c3cnc4[nH]ncc4c3)cc2)cs1` [N-{[4-(2-methyl-1,3-thiazole-4-sulfonyl)phenyl]methyl}-1H-pyrazolo[3,4-b]pyridine-5-carboxamide], the pIC50 is 7.68 in test [1] (SRB) and 7.08 in test [2] (NAMPT enzymatic assay).
As for `Cc1nc(S(=O)(=O)c2ccc(CNC(=O)c3cc4ccncc4o3)cc2)cs1` [N-{[4-(2-methyl-1,3-thiazole-4-sulfonyl)phenyl]methyl}furo[2,3-c]pyridine-2-carboxamide], the pIC50 was 7.16 in test [1] (SRB) and 7.44 in test [2] (NAMPT enzymatic assay).
